The source of these data is patent publication US20190365710A1, “METHODS OF TREATING CANCER” (GlaxoSmithKline Intellectual Property Development Limited, priority 2016, published 2019).

In the test the test system is AML cell lines. Kind of test: Methylscan proteomic evaluation of arginine methylation. The class given is cell-based. The conditions noted are these: AML cell lines treated with the tool compound vs DMSO. The source says:
FIG. 3: Methylscan evaluation of cell lines treated with Compound D. Percent of proteins with methylation changes (independent of directionality of change) are categorized by functional group as indicated.
To identify putative PRMT1 substrates, a proteomic approach (Methylscan, Cell Signaling Technology) was utilized to identify proteins with changes in arginine methylation states in response to a tool PRMT1 inhibitor, Compound D. Protein fragments from Compound D- and DSMO-treated cell extracts were immunoprecipitated using methyl arginine specific antibodies (ADMA, MMA, SDMA), and peptides were identified by mass spectrometry.

In the case of `CNCCN(C)Cc1c[nH]nc1[C@H]1CC[C@@]2(CC1)CC(C)(C)CO2` [Compound D], the “proteins with changes in arginine methylation states (Methylscan)” value was “the majority of substrates identified were transcriptional regulators and RNA processing proteins”.
